Read-outs that look alike come from different tables or passages of the source.

Consider 32 compounds from patent publication US20230183237A1, “COMPETITIVE AND NONCOMPETITIVE INHIBITORS OF THE MUSCARINIC ACETYLCHOLINE RECEPTOR M5” (Vanderbilt University, priority 2020, published 2023).

For this assay, the target named is T1, hM5 (Homo sapiens, UniProt P08912).
T1 construct: expressed in transfected cells
T1 sequence (P08912 1-532): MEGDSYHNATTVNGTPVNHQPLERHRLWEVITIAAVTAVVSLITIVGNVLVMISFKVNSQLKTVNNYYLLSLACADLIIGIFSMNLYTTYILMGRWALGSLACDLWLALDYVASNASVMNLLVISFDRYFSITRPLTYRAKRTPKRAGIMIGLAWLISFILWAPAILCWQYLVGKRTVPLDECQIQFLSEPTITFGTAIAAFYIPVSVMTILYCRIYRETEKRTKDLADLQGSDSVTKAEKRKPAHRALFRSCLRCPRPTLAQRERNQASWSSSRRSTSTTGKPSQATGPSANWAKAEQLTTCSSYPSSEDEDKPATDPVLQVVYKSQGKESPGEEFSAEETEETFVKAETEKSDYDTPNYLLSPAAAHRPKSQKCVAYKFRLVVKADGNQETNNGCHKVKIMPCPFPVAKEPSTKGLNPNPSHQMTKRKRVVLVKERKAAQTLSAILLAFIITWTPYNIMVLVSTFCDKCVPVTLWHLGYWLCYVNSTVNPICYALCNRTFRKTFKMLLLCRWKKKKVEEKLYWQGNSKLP
Kind of assay: Calcium mobilization concentration-response (IC50 vs EC80 acetylcholine), CHO hM5. The class given is cell-based. To be noted: CELL LINE hM5, read-out: IC50. The essentials: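 IC50 values derive from percent maximal acetylcholine response after an EC80 ACh addition, measured as kinetic calcium fluorescence (static ratio, max−min). Test compounds were added 140 s before agonist. Cells: stable hM5-CHO in HEPES-buffered HBSS with 2.5 mM probenecid, pH 7.4; ≥3 independent triplicate determinations.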

[1] abbreviates: calcium mobilization, EC80 acetylcholine addition.

With `Cc1nsc(S(=O)(=O)N2CCC(c3cn4ncnc4cc3Cl)CC2)n1` [Compound 608, 5-((4-(7-Chloro-[1,2,4]triazolo[1,5-a]pyridin-6-yl)piperidin-1-yl)sulfonyl)-3-methyl-1,2,4-thiadiazole], under “vs EC80 acetylcholine”, the IC50 came to 0.234 µM.
Consider `Cc1ncc(S(=O)(=O)N2CCC(c3cn4ncnc4c(F)c3C)CC2)o1` [Compound 486, 5-((4-(8-fluoro-7-methyl-[1,2,4]triazolo[1,5-a]pyridin-6-yl)piperidin-1-yl)sulfonyl)-2-methyloxazole], for which the 50% inhibitory concentration (IC50) (vs EC80 acetylcholine) stood at 0.318 µM.
Turning to `Cc1cc2ncnn2nc1C1CCN(S(=O)(=O)c2cn(C)nn2)CC1` [Compound 559, 7-methyl-6-(1-((1-methyl-1H-1,2,3-triazol-4-yl)sulfonyl)piperidin-4-yl)-[1,2,4]triazolo[1,5-b]pyridazine], where the note is “vs EC80 acetylcholine”, the concentration for half-maximal inhibition (IC50) is > 10 µM.
Same read-out and setting: as for `Cc1ncc(S(=O)(=O)N2CCC(c3cn4ccnc4cc3Cl)CC2)s1` [Compound 589, 5-((4-(7-chloroimidazo[1,2-a]pyridin-6-yl)piperidin-1-yl)sulfonyl)-2-methylthiazole], the figure is 0.53 µM.
For the compound `Cc1cc2ncnn2nc1C1CCN(S(=O)(=O)c2cnc3n2CCC3)CC1` [Compound 208, 6-(1-((6,7-dihydro-5H-pyrrolo[1,2-a]imidazol-3-yl)sulfonyl)piperidin-4-yl)-7-methyl-[1,2,4]triazolo[1,5-b]pyridazine], the half-maximal inhibitory concentration (IC50) under setting [1] was > 10 µM.
`O=S(=O)(c1ccc2c(c1)CCO2)N1CCC(c2cc3cnccc3s2)CC1` [Compound 14, 2-(1-((2,3-dihydrobenzofuran-5-yl)sulfonyl)piperidin-4-yl)thieno[3,2-c]pyridine]: the IC50 under setting [1] was > 10 µM.
Still for that read-out and setting: as for `O=S(=O)(c1cnc2n1CCCC2)N1CCC(c2cn3ncnc3cc2C(F)(F)F)CC1` [Compound 339, 6-(1-((5,6,7.8-tetrahydroimidazo[1,2-a]pyridin-3-yl)sulfonyl)piperidin-4-yl)-7-(trifluoromethyl)-[1,2,4]triazolo[1,5-a]pyridine], the figure is 0.067 µM.
As for `Cc1nc2n(c1C1CCN(S(=O)(=O)c3cnn(C)c3CC#N)CC1)CCCC2` [Compound 466, 2-(1-methyl-4-((4-(2-methyl-5,6,7,8-tetrahydroimidazo[1,2-a]pyridin-3-yl)piperidin-1-yl)sulfonyl)-1H-pyrazol-5-yl)acetonitrile], where the note is “vs EC80 acetylcholine”, the IC50 was > 10 µM.
Turning to `Cc1cc2nccn2nc1C1CCN(S(=O)(=O)c2cnn(C(F)F)c2C)CC1` [Compound 312, 6-(1-((1-(difluoromethyl)-5-methyl-1H-pyrazol-4-yl)sulfonyl)piperidin-4-yl)-7-methylimidazo[1,2-b]pyridazine], the IC50 under setting [1] was found to be 0.877 µM.
`Cc1cc2ncnn2cc1C1CCN(S(=O)(=O)c2ccc(F)cc2)CC1` [Compound 153, 6-(1-((4-fluorophenyl)sulfonyl)piperidin-4-yl)-7-methyl-[1,2,4]triazolo[1,5-a]pyridine]: the IC50 under setting [1] stood at 4.1 µM.
As to `Cc1cc2ncnn2cc1C1CCN(S(=O)(=O)c2ccc3ncn(C)c3c2)CC1` [Compound 188, 7-methyl-6-(1-((1-methyl-1H-benzo[d]imidazol-6-yl)sulfonyl)piperidin-4-yl)-[1,2,4]triazolo[1,5-a]pyridine], under setting [1], the IC50 stood at 0.105 µM.
The same measure, in the same setting: as for `Cc1cc2nccn2nc1C1CCN(S(=O)(=O)c2ccc3ncsc3c2)CC1` [Compound 38, 6-((4-(7-methylimidazo[1,2-b]pyridazin-6-yl)piperidin-1-yl)sulfonyl)benzo[d]thiazole], the figure is 4.2 µM.
With `O=S(=O)(c1cnn2ccccc12)N1CCC(c2cn3ncnc3cc2C(F)F)CC1` [Compound 510, 7-(difluoromethyl)-6-(1-(pyrazolo[1,5-a]pyridin-3-ylsulfonyl)piperidin-4-yl)-[1,2,4]triazolo[1,5-a]pyridine], the half-maximal inhibitory concentration (IC50) (vs EC80 acetylcholine) turned out to be 0.06 µM.
The same measure, in the same setting: in the case of `Cc1cc2ncccc2cc1C1CCN(S(=O)(=O)c2c(Cl)nn3ccccc23)CC1` [Compound 447, 6-(1-((2-chloropyrazolo[1,5-a]pyridin-3-yl)sulfonyl)piperidin-4-yl)-7-methylquinoline] it was 1.36 µM.
`Cc1nc(C)c(S(=O)(=O)N2CCC(c3cn4ncnc4cc3C(F)(F)F)CC2)s1` [Compound 279, 2,4-dimethyl-5-((4-(7-(trifluoromethyl)-[1,2,4]triazolo[1,5-a]pyridin-6-yl)piperidin-1-yl)sulfonyl)thiazole]: the IC50 under setting [1] is > 10 µM.
`Cc1cc2ncnn2nc1C1CCN(S(=O)(=O)c2cn(C)nc2C)CC1` [Compound 182, 6-(1-((1,3-dimethyl-1H-pyrazol-4-yl)sulfonyl)piperidin-4-yl)-7-methyl-[1,2,4]triazolo[1,5-b]pyridazine]: the IC50 under setting [1] is > 10 µM.
Take `CO[C@@H]1CN(S(=O)(=O)c2cnn(C)c2Cl)CC[C@H]1c1cn2ncnc2cc1C` (single isomer, unassigned) [Compound 459]: the half-inhibitory concentration (IC50) (vs EC80 acetylcholine) worked out at 0.268 µM.
On to `Cc1cc2nccnc2cc1C1CCN(S(=O)(=O)c2cnn(C)c2C)CC1` [Compound 425, 6-(1-((1,5-dimethyl-1H-pyrazol-4-yl)sulfonyl)piperidin-4-yl)-7-methylquinoxaline], for which the half-inhibitory concentration (IC50) (vs EC80 acetylcholine) amounted to 0.072 µM.
Regarding `Cc1cc2ncnn2cc1C1CCN(S(=O)(=O)c2cnc3n2CCCC3)CC1` [Compound 322, 7-methyl-6-(1-((5,6,7,8-tetrahydroimidazo[1,2-a]pyridin-3-yl)sulfonyl)piperidin-4-yl)-[1,2,4]triazolo[1,5-a]pyridine], the 50% inhibitory concentration (IC50) under setting [1] is 0.0098 µM.
For the compound `O=S(=O)(c1cnn2c1OCCC2)N1CCC(c2ccncc2)CC1` [Compound 367, 3-((4-(pyridin-4-yl)piperidin-1-yl)sulfonyl)-6,7-dihydro-5H-pyrazolo[5,1-b][1,3]oxazine], the IC50 under setting [1] was > 10 µM.
On the same count and under the same terms, as for `Cc1cc(C(F)(F)F)ncc1C1CCN(S(=O)(=O)c2cnn(C)c2C)CC1` [Compound 394, 5-(1-((1,5-dimethyl-1H-pyrazol-4-yl)sulfonyl)piperidin-4-yl)-4-methyl-2-(trifluoromethyl)pyridine], the figure is 2.51 µM; as for `Cn1ncc(S(=O)(=O)N2CCC(c3cc(F)c4ncnn4c3)CC2)c1Cl` [Compound 382, 6-(1-((5-chloro-1-methyl-1H-pyrazol-4-yl)sulfonyl)piperidin-4-yl)-8-fluoro-[1,2,4]triazolo[1,5-a]pyridine], 0.849 µM.
For the compound `Cc1cc2ncnn2cc1C1CCN(S(=O)(=O)c2cnc3ccccn23)CC1` [Compound 323, 6-(1-(imidazo[1,2-a]pyridin-3-ylsulfonyl)piperidin-4-yl)-7-methyl-[1,2,4]triazolo[1,5-a]pyridine], under setting [1], the IC50 stood at 0.016 µM.
The same measure, in the same setting: as for `Cc1cc2nccn2nc1C1CCN(S(=O)(=O)c2ccc3c(c2)CCCO3)CC1` [Compound 43, 6-(1-(chroman-6-ylsulfonyl)piperidin-4-yl)-7-methylimidazo[1,2-b]pyridazine], the figure is 3.6 µM; as for `Cc1c(S(=O)(=O)N2CCC(c3cn4ncnc4cc3F)CC2)cnn1C(F)F` [Compound 230, 6-(1-((1-(difluoromethyl)-5-methyl-1H-pyrazol-4-yl)sulfonyl)piperidin-4-yl)-7-fluoro-[1,2,4]triazolo[1,5-a]pyridine], > 10 µM; as for `Cc1cc2ncnn2cc1C1CCN(S(=O)(=O)c2cn(C(F)F)nc2C)CC1` [Compound 144, 6-(1-((1-(difluoromethyl)-3-methyl-1H-pyrazol-4-yl)sulfonyl)piperidin-4-yl)-7-methyl-[1,2,4]triazolo[1,5-a]pyridine], 1.2 µM.
Take `Cc1cc2ncccc2cc1C1CCN(S(=O)(=O)c2cnc3ccccn23)CC1` [Compound 452, 6-(1-(imidazo[1,2-a]pyridin-3-ylsulfonyl)piperidin-4-yl)-7-methylquinoline]: the half-maximal inhibitory concentration (IC50) (vs EC80 acetylcholine) turned out to be 0.445 µM.
On to `Cc1cc2nccnc2cc1C1=CCN(S(=O)(=O)c2cnn(C)c2C)CC1` [Compound 354, 6-(1((1,5-dimethyl-1H-pyrazol-4-yl)sulfonyl)-1,2,3,6-tetrahydropyridin-4-yl)-7-methylquinoxaline], for which the half-inhibitory concentration (IC50) under setting [1] is 0.064 µM.
`COc1c(S(=O)(=O)N2CCC(c3cn4ncnc4cc3C)CC2)cnn1C` [Compound 573, 6-(1-((5-methoxy-1-methyl-1H-pyrazol-4-yl)sulfonyl)piperidin-4-yl)-7-methyl-[1,2,4]triazoto[1,5-a]pyridine]: the IC50 (vs EC80 acetylcholine) was determined as 0.012 µM.
Take `Cc1cc2ncnn2cc1C1CCN(S(=O)(=O)c2cnc3n2CCC3)CC1` [Compound 219, 6-(1-((6,7-dihydro-5H-pyrrolo[1,2-a]imidazol-3-yl)sulfonyl)piperidin-4-yl)-7-methyl-[1,2,4]triazolo[1,5-a]pyridine]: under setting [1], the half-maximal inhibitory concentration (IC50) was > 10 µM.
With `Cc1nc2n(c1C1CCN(S(=O)(=O)c3cnn(C)c3C(F)F)CC1)CCCC2` [Compound 465, 3-(1-((5-(difluoromethyl)-1-methyl-1H-pyrazol-4-yl)sulfonyl)piperidin-4-yl)-2-methyl-5,6,7,8-tetrahydroimidazo[1,2-a]pyridine], the 50% inhibitory concentration (IC50) (vs EC80 acetylcholine) was determined as 6.92 µM.
Still for that read-out and setting: as for `Cc1ncc(S(=O)(=O)N2CCC(c3c4c(nn3C)CCCC4)CC2)s1` [Compound 593, 2-methyl-5-((4-(2-methyl-4,5,6,7-tetrahydro-2H-indazol-3-yl)piperidin-1-yl)sulfonyl)thiazole], the figure is > 10 µM.
